Where two headings read alike, the source gives them in different places.

What is called IC50 is the concentration that gives 50% inhibition.

Details of data set [1]: method as in Filippatos et al. 2016. The following applies: 1066 HFrEF patients; ref Filippatos et al. 2016; cited from earlier work.
The conditions of data set [2]: quantitative whole-body autoradiography, [14C]-labeled, healthy rats; ref Kolkhof et al. 2014; cited from earlier work.
In data set [3] the test system is mouse model of pressure overload-induced HF. Details: method as in Grune et al. 2016. The following applies: ref Grune et al. 2016; cited from earlier work.
The test system of data set [4] is MR. Set-up: method as in Amazit et al. 2015. The following applies: ref Amazit et al. 2015; cited from earlier work.
Data set [5] concerns the target T1, ligand binding domain of MR (Homo sapiens, UniProt P08235).
T1 construct: expressed in transfected cells; host or cells: CHO-K1
T1 sequence (P08235 726-964 limits assumed): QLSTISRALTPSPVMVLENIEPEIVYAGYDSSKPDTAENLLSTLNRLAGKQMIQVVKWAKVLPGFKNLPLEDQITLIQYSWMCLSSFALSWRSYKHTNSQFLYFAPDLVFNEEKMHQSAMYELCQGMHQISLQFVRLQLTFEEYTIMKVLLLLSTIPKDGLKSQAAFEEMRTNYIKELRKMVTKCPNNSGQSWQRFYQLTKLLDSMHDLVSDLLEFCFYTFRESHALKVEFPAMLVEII
The experiment in a line: functional cell-based MR transactivation assay in CHO-K1 cells. The following applies: duplicate.

Data set [6] concerns DOCA/salt rats. Set-up: method as in Kolkhof et al. 2014. The following applies: ref Kolkhof et al. 2014, cited from earlier work.
Details of data set [7]: method as in Pitt et al. 2013. The following applies: ref Pitt et al. 2013, cited from earlier work.
The test system of data set [8] is S810L MR mutant. Details: method as in Geller et al. 2000, Amazit et al. 2015. The following applies: ref Geller et al. 2000, Amazit et al. 2015; cited from earlier work.
The subject of data set [9] is MR vs all other steroid hormone receptors. The following applies: ref Bärfacker et al. 2012, Pitt et al. 2012; cited from earlier work.
For data set [10], the system named is SRC-1 recruitment at the promoter of the SCNN1A gene. Set-up: method as in Amazit et al. 2015. The following applies: ref Amazit et al. 2015; cited from earlier work.
For data set [11] the following is noted: cited from earlier work; for absolute change in nocturnal BP: day 90, patients with nocturnal hypertension, ref Ruilope et al. 2016.

Take `CCOc1ncc(C)c2c1[C@H](c1ccc(C#N)cc1OC)C(C(N)=O)=C(C)N2` [finerenone]: the “outcome including death and CV hospitalization vs eplerenone” value in data set [1] was “nominally improved outcome”. Moreover, the “distribution into cardiac and kidney tissues” value in data set [2] is listed as “balanced distribution”. Moreover, the “prevention of myocardial hypertrophy vs eplerenone” value in data set [3] is recorded as “more pronounced prevention of myocardial hypertrophy”. The “delay of aldosterone-induced nuclear translocation of MR” value in [4] is given as “more efficiently than spironolactone”. Moreover, the IC50 in [5] (agonist DOCA 10 nM, read-out: IC50 vs DOCA as agonist) was 46 nM; in data set [5] (agonist corticosterone 1 nM, read-out: IC50 vs corticosterone as agonist) it was 24 nM; in data set [5] (agonist cortisol 10 nM, read-out: IC50 vs cortisol as agonist) it was 5 nM. Besides, the “systolic blood pressure vs 100 mg/kg eplerenone” value in data set [6] (10 mg/kg finerenone, head-to-head) is “significantly lower”. In addition, the “reduction of cardiac hypertrophy, pro-BNP and proteinuria vs eplerenone” value in data set [6] (equinatriuretic doses) is “more efficiently than eplerenone”. The “decrease of BNP, NT-pro-BNP and urinary albumin vs spironolactone” value in data set [7] (5 and 10 mg OD vs spironolactone 25 or 50 mg/day) is recorded as “at least as effective as spironolactone”. For the same compound, the “incidence of hyperkalemia vs spironolactone” value in [7] (5 and 10 mg OD) is “significantly lower incidence”. Further, the “increases in serum potassium vs spironolactone” value in data set [7] (5 and 10 mg OD) is “significantly lower increases”. For the same compound, the “effect on S810L MR mutant” value in data set [8] is given as “block”. Besides, the “selectivity toward MR” value in [9] is on record as “at least 500 fold”. Besides, the “mode of action on SRC-1 recruitment” value in data set [10] is “inverse agonist”. In addition, the results for the “absolute change in nocturnal BP” value in [11] (10 mg dose group) and in data set [11] (20 mg dose group) were −9.5 mmHg and −12.0 mmHg, respectively. In [11] (7.5, 10, 15 and 20 mg, 90 days, on top of SoC, ref Bakris et al. 2015), the albuminuria result is “dose-dependent, significant reductions”.

The values above are taken from article PMC5488394, “30 YEARS OF THE MINERALOCORTICOID RECEPTOR: Mineralocorticoid receptor antagonists: 60 years of research and development” (The Journal of Endocrinology, 2017).
